Experimental data reported in ChEMBL document CHEMBL3885861, “Open TG-GATES”.

Species on record: Rattus norvegicus
Assay: Open TG-GATES - Regimen: Daily Repeat
Format: toxicity, organism-based, Sprague-Dawley
Design: regimen Daily Repeat, gender Male, age 6 weeks
Details: in vivo, po, route gavage; for APTT / Bas / Eos / Fbg / Hb / Ht / Lym / MCH / MCHC / MCV / Mono / Neu / PT / Plat / RBC / Ret / WBC: tissue Blood; for KIDNEY_L / KIDNEY_R / KIDNEY_TOTAL: tissue Kidney; for LIVER: tissue Liver; for A/G / ALP / ALT / AST / BUN / CRE / Ca / Cl / DBIL / GLC / IP / K / LDH / Na / PL / RALB / TBIL / TC / TG / TP / gamma-GTP: tissue Plasma
[1] = 0 mg/kg, 72 h, dose level Control, time 3 day
[2] = 0 mg/kg, […], dose level Control, time 7 day
[3] = 0 mg/kg, […], dose level Control, time 14 day
[4] = 0 mg/kg, […], dose level Control, time 28 day
[5] = 300 mg/kg, 72 h, dose level Low, time 3 day
[6] = 300 mg/kg, […], dose level Low, time 7 day
[7] = 300 mg/kg, […], dose level Low, time 14 day
[8] = 300 mg/kg, […], dose level Low, time 28 day

## COc1ccc(O)c(C(C)(C)C)c1.COc1ccc(O)cc1C(C)(C)C [BUTYLATED HYDROXYANISOLE]
[1]
  TERMINAL_BW: 225.6 g
  APTT: 15.7 s
  Bas: 0.2%
  Eos: 0.8%
  Fbg: 265.6 mg/dL
  Hb: 12.9 g/dL
  Ht: 38%
  Lym: 71.6%
  MCH: 20.9 pg
  MCHC: 34%
  MCV: 61.5 fL
  Mono: 2.4%
  Neu: 24.3%
  PT: 11.5 s
  Plat: 140.6 x10_4/uL
  RBC: 619 x10_4/ul
  Ret: 6.6%
  WBC: 90.7 x10_2/uL
  KIDNEY_L: 0.9 g
  KIDNEY_R: 0.9 g
  KIDNEY_TOTAL: 1.9 g
  LIVER: 10.1 g
  A/G: 0.8
  ALP: 1690.8 IU/L
  ALT: 37.2 IU/L
  AST: 66.4 IU/L
  BUN: 12.8 mg/dL
  CRE: 0.2 mg/dL
  Ca: 11.2 mg/dL
  Cl: 106 meq/L
  DBIL: 0.02 mg/dL
  GLC: 178.4 mg/dL
  IP: 7.3 mg/dL
  K: 4 meq/L
  LDH: 60.4 IU/L
  Na: 143 meq/L
  PL: 136.2 mg/dL
  RALB: 2.6 g/dL
  TBIL: 0.064 mg/dL
  TC: 76.8 mg/dL
  TG: 69.4 mg/dL
  TP: 5.8 g/dL
  gamma-GTP: 1 IU/L
[2]
  TERMINAL_BW: 252.9 g
  APTT: 19 s
  Bas: 0.3%
  Eos: 0.8%
  Fbg: 288.2 mg/dL
  Hb: 13.5 g/dL
  Ht: 38.9%
  Lym: 76.5%
  MCH: 20.8 pg
  MCHC: 34.7%
  MCV: 60.1 fL
  Mono: 2.5%
  Neu: 19.2%
  PT: 12.2 s
  Plat: 135.8 x10_4/uL
  RBC: 647.4 x10_4/ul
  Ret: 5.1%
  WBC: 94.6 x10_2/uL
  KIDNEY_L: 1 g
  KIDNEY_R: 1 g
  KIDNEY_TOTAL: 2 g
  LIVER: 11.4 g
  A/G: 0.8
  ALP: 1903.8 IU/L
  ALT: 44.4 IU/L
  AST: 67 IU/L
  BUN: 16 mg/dL
  CRE: 0.2 mg/dL
  Ca: 11 mg/dL
  Cl: 104.8 meq/L
  DBIL: 0.02 mg/dL
  GLC: 180.2 mg/dL
  IP: 7 mg/dL
  K: 4.1 meq/L
  LDH: 58.2 IU/L
  Na: 142 meq/L
  PL: 135.4 mg/dL
  RALB: 2.6 g/dL
  TBIL: 0.048 mg/dL
  TC: 70.6 mg/dL
  TG: 95.2 mg/dL
  TP: 5.9 g/dL
  gamma-GTP: 1 IU/L
[3]
  TERMINAL_BW: 320.1 g
  APTT: 16.9 s
  Bas: 0.3%
  Eos: 0.6%
  Fbg: 269.2 mg/dL
  Hb: 13.9 g/dL
  Ht: 40.5%
  Lym: 78.2%
  MCH: 19.9 pg
  MCHC: 34.4%
  MCV: 57.8 fL
  Mono: 1.9%
  Neu: 18.2%
  PT: 12.2 s
  Plat: 143.4 x10_4/uL
  RBC: 700.6 x10_4/ul
  Ret: 3.6%
  WBC: 111.3 x10_2/uL
  KIDNEY_L: 1.2 g
  KIDNEY_R: 1.2 g
  KIDNEY_TOTAL: 2.3 g
  LIVER: 14.3 g
  A/G: 0.8
  ALP: 1384.2 IU/L
  ALT: 32 IU/L
  AST: 57.6 IU/L
  BUN: 14.4 mg/dL
  CRE: 0.2 mg/dL
  Ca: 10.7 mg/dL
  Cl: 105.8 meq/L
  DBIL: 0.018 mg/dL
  GLC: 181.4 mg/dL
  IP: 6.6 mg/dL
  K: 3.7 meq/L
  LDH: 52 IU/L
  Na: 143 meq/L
  PL: 137 mg/dL
  RALB: 2.7 g/dL
  TBIL: 0.048 mg/dL
  TC: 72.8 mg/dL
  TG: 133.8 mg/dL
  TP: 6 g/dL
  gamma-GTP: 1 IU/L
[4]
  TERMINAL_BW: 409.6 g
  APTT: 17.9 s
  Bas: 0.4%
  Eos: 0.9%
  Fbg: 262.8 mg/dL
  Hb: 15 g/dL
  Ht: 41.8%
  Lym: 78.1%
  MCH: 19.5 pg
  MCHC: 35.9%
  MCV: 54.4 fL
  Mono: 1.8%
  Neu: 18.2%
  PT: 12.3 s
  Plat: 121 x10_4/uL
  RBC: 769 x10_4/ul
  Ret: 2.3%
  WBC: 105.1 x10_2/uL
  KIDNEY_L: 1.3 g
  KIDNEY_R: 1.3 g
  KIDNEY_TOTAL: 2.6 g
  LIVER: 16.7 g
  A/G: 0.7
  ALP: 1254.6 IU/L
  ALT: 32.6 IU/L
  AST: 57.6 IU/L
  BUN: 17.8 mg/dL
  CRE: 0.3 mg/dL
  Ca: 10.8 mg/dL
  Cl: 104.8 meq/L
  DBIL: 0.02 mg/dL
  GLC: 191 mg/dL
  IP: 5.4 mg/dL
  K: 4 meq/L
  LDH: 62.2 IU/L
  Na: 143.2 meq/L
  PL: 134.6 mg/dL
  RALB: 2.6 g/dL
  TBIL: 0.054 mg/dL
  TC: 68.6 mg/dL
  TG: 179.6 mg/dL
  TP: 6.2 g/dL
  gamma-GTP: 1 IU/L
[5]
  TERMINAL_BW: 219.2 g
  APTT: 15.4 s
  Bas: 0.3%
  Eos: 1.2%
  Fbg: 275.8 mg/dL
  Hb: 12.7 g/dL
  Ht: 37.2%
  Lym: 78.2%
  MCH: 20.4 pg
  MCHC: 34.2%
  MCV: 59.9 fL
  Mono: 2.2%
  Neu: 17.1%
  PT: 11.5 s
  Plat: 148 x10_4/uL
  RBC: 623.6 x10_4/ul
  Ret: 4.9%
  WBC: 112 x10_2/uL
  KIDNEY_L: 0.9 g
  KIDNEY_R: 0.9 g
  KIDNEY_TOTAL: 1.7 g
  LIVER: 12.2 g
  A/G: 0.8
  ALP: 1525.6 IU/L
  ALT: 36.4 IU/L
  AST: 64.8 IU/L
  BUN: 15.8 mg/dL
  CRE: 0.2 mg/dL
  Ca: 11.2 mg/dL
  Cl: 106.4 meq/L
  DBIL: 0.02 mg/dL
  GLC: 171.4 mg/dL
  IP: 6.3 mg/dL
  K: 4.3 meq/L
  LDH: 60.6 IU/L
  Na: 142.2 meq/L
  PL: 173.4 mg/dL
  RALB: 2.7 g/dL
  TBIL: 0.064 mg/dL
  TC: 95.6 mg/dL
  TG: 89.8 mg/dL
  TP: 6 g/dL
  gamma-GTP: 1.2 IU/L
[6]
  TERMINAL_BW: 261 g
  APTT: 15.7 s
  Bas: 0.2%
  Eos: 0.6%
  Fbg: 300.8 mg/dL
  Hb: 13 g/dL
  Ht: 38.5%
  Lym: 74.3%
  MCH: 20.4 pg
  MCHC: 33.7%
  MCV: 60.4 fL
  Mono: 2.4%
  Neu: 21.7%
  PT: 11.5 s
  Plat: 154.1 x10_4/uL
  RBC: 638 x10_4/ul
  Ret: 6.1%
  WBC: 97.1 x10_2/uL
  KIDNEY_L: 1 g
  KIDNEY_R: 1 g
  KIDNEY_TOTAL: 2.1 g
  LIVER: 13.6 g
  A/G: 0.8
  ALP: 1426 IU/L
  ALT: 33.8 IU/L
  AST: 59.8 IU/L
  BUN: 15.2 mg/dL
  CRE: 0.2 mg/dL
  Ca: 11.3 mg/dL
  Cl: 105 meq/L
  DBIL: 0.018 mg/dL
  GLC: 176 mg/dL
  IP: 7.2 mg/dL
  K: 3.9 meq/L
  LDH: 61.2 IU/L
  Na: 142.8 meq/L
  PL: 163 mg/dL
  RALB: 2.7 g/dL
  TBIL: 0.054 mg/dL
  TC: 91 mg/dL
  TG: 100.2 mg/dL
  TP: 6.1 g/dL
  gamma-GTP: 1 IU/L
[7]
  TERMINAL_BW: 311.5 g
  APTT: 15.2 s
  Bas: 0.2%
  Eos: 0.7%
  Fbg: 319.4 mg/dL
  Hb: 13.7 g/dL
  Ht: 39.7%
  Lym: 77.1%
  MCH: 19.7 pg
  MCHC: 34.6%
  MCV: 57 fL
  Mono: 2.2%
  Neu: 19.3%
  PT: 11.5 s
  Plat: 140.8 x10_4/uL
  RBC: 696.8 x10_4/ul
  Ret: 3.8%
  WBC: 87.1 x10_2/uL
  KIDNEY_L: 1.1 g
  KIDNEY_R: 1.1 g
  KIDNEY_TOTAL: 2.2 g
  LIVER: 15.1 g
  A/G: 0.8
  ALP: 1317.4 IU/L
  ALT: 34.6 IU/L
  AST: 58.6 IU/L
  BUN: 15.8 mg/dL
  CRE: 0.2 mg/dL
  Ca: 10.9 mg/dL
  Cl: 106.6 meq/L
  DBIL: 0.012 mg/dL
  GLC: 187 mg/dL
  IP: 6.5 mg/dL
  K: 3.5 meq/L
  LDH: 49.6 IU/L
  Na: 144.4 meq/L
  PL: 156.6 mg/dL
  RALB: 2.8 g/dL
  TBIL: 0.046 mg/dL
  TC: 88.2 mg/dL
  TG: 88.8 mg/dL
  TP: 6.3 g/dL
  gamma-GTP: 1.4 IU/L
[8]
  TERMINAL_BW: 401.5 g
  APTT: 19.5 s
  Bas: 0.5%
  Eos: 0.6%
  Fbg: 303.6 mg/dL
  Hb: 14.9 g/dL
  Ht: 41.2%
  Lym: 75.9%
  MCH: 19.7 pg
  MCHC: 36%
  MCV: 54.7 fL
  Mono: 1.7%
  Neu: 20.7%
  PT: 12.1 s
  Plat: 114.8 x10_4/uL
  RBC: 753.2 x10_4/ul
  Ret: 2.2%
  WBC: 131.8 x10_2/uL
  KIDNEY_L: 1.4 g
  KIDNEY_R: 1.3 g
  KIDNEY_TOTAL: 2.7 g
  LIVER: 18.5 g
  A/G: 0.7
  ALP: 844.2 IU/L
  ALT: 32.8 IU/L
  AST: 52.6 IU/L
  BUN: 16.2 mg/dL
  CRE: 0.3 mg/dL
  Ca: 11 mg/dL
  Cl: 103.8 meq/L
  DBIL: 0.012 mg/dL
  GLC: 189.6 mg/dL
  IP: 6.1 mg/dL
  K: 3.5 meq/L
  LDH: 53.6 IU/L
  Na: 144.4 meq/L
  PL: 167.2 mg/dL
  RALB: 2.7 g/dL
  TBIL: 0.056 mg/dL
  TC: 91.4 mg/dL
  TG: 132 mg/dL
  TP: 6.5 g/dL
  gamma-GTP: 1.4 IU/L
